The structures appear in SMILES notation.

This assay deals with T1, human cloned CHRM5 receptor (Homo sapiens, UniProt P08912).
T1 construct: expressed in transfected cells; host or cells: CHO (M5_CHO)
T1 sequence (P08912 1-532): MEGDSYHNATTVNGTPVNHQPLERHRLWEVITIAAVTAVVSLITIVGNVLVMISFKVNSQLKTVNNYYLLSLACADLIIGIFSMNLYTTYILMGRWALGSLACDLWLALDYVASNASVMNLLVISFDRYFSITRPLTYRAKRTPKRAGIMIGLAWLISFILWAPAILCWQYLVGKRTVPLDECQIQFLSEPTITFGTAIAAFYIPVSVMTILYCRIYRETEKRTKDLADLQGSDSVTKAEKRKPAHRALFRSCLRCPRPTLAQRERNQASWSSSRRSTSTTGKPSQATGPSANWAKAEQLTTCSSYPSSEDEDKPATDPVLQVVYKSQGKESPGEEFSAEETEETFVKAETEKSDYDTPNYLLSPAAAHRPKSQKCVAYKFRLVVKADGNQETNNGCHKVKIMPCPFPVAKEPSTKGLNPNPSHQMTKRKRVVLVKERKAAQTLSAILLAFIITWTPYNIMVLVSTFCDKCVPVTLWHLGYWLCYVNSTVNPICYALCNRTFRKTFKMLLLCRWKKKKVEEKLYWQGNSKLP
The assay can be described thus: CHRM5 Ca++ Flux Assay (M5_CHO cells, agonist mode). It is filed as cell-based. The following applies: for Emax: Percent Activity (PA) measured to EC100 of Carbachol, read-out: M5 FDSS PA %; for EC50: agonist mode, geometric mean if tested more than once, read-out: M5 FDSS EC50. An outline of the steps:
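CHO-K1 cells stably expressing human M3 or M5 receptor, dye-loaded ≥1 h, treated with 11-point compound doses in triplicate; Ca++ flux read over 3 min (FDSS). Agonist-mode four-parameter fit; percent activity relative to carbachol EC100; repeat tests reported as geometric mean.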

As for `CC(C)(O)CCOc1cc(F)ccc1C1CCN([C@@H]2COC3(C2)CN(c2nncs2)C3)CC1` [Example 5V, (S)-4-(2-(1-(2-(1,3,4-thiadiazol-2-yl)-5-oxa-2-azaspiro[3.4]octan-7-yl)piperidin-4-yl)-5-fluorophenoxy)-2-methylbutan-2-ol], the Emax came out at 0% and the EC50 was above 25 µM.

Turning to `c1ccc(C2CCN([C@@H]3COC4(C3)CN(c3nnco3)C4)CC2)c(OC2COC2)c1` [Example 1P, (S)-2-(1,3,4-oxadiazol-2-yl)-7-(4-(2-(oxetan-3-yloxy)phenyl)piperidin-1-yl)-5-oxa-2-azaspiro[3.4]octane], the Emax amounted to 0% and the EC50 was above 25 µM.

With `CC(C)(O)COc1ccc(F)cc1C1CCN([C@@H]2COC3(C2)CN(c2nnco2)C3)CC1` [Example 1U, (S)-1-(2-(1-(2-(1,3,4-oxadiazol-2-yl)-5-oxa-2-azaspiro[3.4]octan-7-yl)piperidin-4-yl)-4-fluorophenoxy)-2-methylpropan-2-ol], the Emax was 0% and the EC50 is above 25 µM.

For `Fc1ccc(OC2COC2)c(C2CCN([C@@H]3COC4(C3)CN(c3nnco3)C4)CC2)c1` [Example 1A, (S)-7-(4-(5-fluoro-2-(oxetan-3-yloxy)phenyl)piperidin-1-yl)-2-(1,3,4-oxadiazol-2-yl)-5-oxa-2-azaspiro[3.4]octane], the Emax is 0% and the EC50 was above 25 µM.

Regarding `CC(C)(O)CCOc1ccc(F)cc1C1CCN([C@@H]2COC3(C2)CN(c2nnco2)C3)CC1` [Example 1N, (S)-4-(2-(1-(2-(1,3,4-oxadiazol-2-yl)-5-oxa-2-azaspiro[3.4]octan-7-yl)piperidin-4-yl)-4-fluorophenoxy)-2-methylbutan-2-ol], the Emax was determined as 0% and the 50% effective concentration (EC50) is above 25 µM.

`Fc1ccc(OC2CC3(COC3)C2)c(C2CCN([C@H]3COC4(C3)CN(c3nnco3)C4)CC2)c1` [Example 7A, (R)-7-(4-(2-((2-oxaspiro[3.3]heptan-6-yl)oxy)-5-fluorophenyl)piperidin-1-yl)-2-(1,3,4-oxadiazol-2-yl)-5-oxa-2-azaspiro[3.4]octane]: the Emax turned out to be 0% and the EC50 was above 25 µM.

For the compound `CC(C)(O)COc1ccccc1C1CCN([C@@H]2COC3(C2)CN(c2ncns2)C3)CC1` [Example 5Y, (S)-1-(2-(1-(2-(1,2,4-thiadiazol-5-yl)-5-oxa-2-azaspiro[3.4]octan-7-yl)piperidin-4-yl)phenoxy)-2-methylpropan-2-ol], the Emax stood at 0% and the concentration giving a half-maximal response (EC50) is above 25 µM.

In the case of `CCC1(COc2ccc(F)cc2C2CCN([C@@H]3COC4(C3)CN(c3nnco3)C4)CC2)COC1` [Example 2P, (S)-7-(4-(2-((3-ethyloxetan-3-yl)methoxy)-5-fluorophenyl)piperidin-1-yl)-2-(1,3,4-oxadiazol-2-yl)-5-oxa-2-azaspiro[3.4]octane], the Emax is 0% and the EC50 was above 25 µM.

With `Fc1ccc(OC2COCOC2)c(C2CCN([C@@H]3COC4(C3)CN(c3nnco3)C4)CC2)c1` [Example 1M, (S)-7-(4-(2-((1,3-dioxan-5-yl)oxy)-5-fluorophenyl)piperidin-1-yl)-2-(1,3,4-oxadiazol-2-yl)-5-oxa-2-azaspiro[3.4]octane], the Emax was determined as 0% and the half-maximal effective concentration (EC50) was above 25 µM.

`CC1(COc2ccc(F)cc2C2CCN([C@@H]3COC4(C3)CN(c3nnco3)C4)CC2)COC1` [Example 2K, (S)-7-(4-(5-fluoro-2-((3-methyloxetan-3-yl)methoxy)phenyl)piperidin-1-yl)-2-(1,3,4-oxadiazol-2-yl)-5-oxa-2-azaspiro[3.4]octane]: the Emax was found to be 0% and the EC50 was above 25 µM.

For the compound `Fc1ccc(OCc2ncccn2)c(C2CCN([C@@H]3COC4(C3)CN(c3nnco3)C4)CC2)c1` [Example 2I, (S)-7-(4-(5-fluoro-2-(pyrimidin-2-ylmethoxy)phenyl)piperidin-1-yl)-2-(1,3,4-oxadiazol-2-yl)-5-oxa-2-azaspiro[3.4]octane], the Emax is 0% and the concentration for a half-maximal effect (EC50) is above 25 µM.

Take `c1ccc(C2CCN([C@@H]3COC4(C3)CN(c3nnco3)C4)CC2)c(-c2cncnc2)c1` [Example 1W, (S)-2-(1,3,4-oxadiazol-2-yl)-7-(4-(2-(pyrimidin-5-yl)phenyl)piperidin-1-yl)-5-oxa-2-azaspiro[3.4]octane]: the Emax was 20% and the EC50 amounted to 13.8 µM.

As for `Fc1ccc(OCC2CCOCC2)c(C2CCN([C@@H]3COC4(C3)CN(c3nnco3)C4)CC2)c1` [Example 1J, (S)-7-(4-(5-fluoro-2-((tetrahydro-2H-pyran-4-yl)methoxy)phenyl)piperidin-1-yl)-2-(1,3,4-oxadiazol-2-yl)-5-oxa-2-azaspiro[3.4]octane], the Emax is 0% and the EC50 was above 25 µM.

Consider `COc1ccc(F)cc1C1CCN([C@@H]2COC3(C2)CN(c2nnco2)C3)CC1` [Example 1V, (S)-7-(4-(5-fluoro-2-methoxyphenyl)piperidin-1-yl)-2-(1,3,4-oxadiazol-2-yl)-5-oxa-2-azaspiro[3.4]octane], for which the Emax amounted to 0% and the EC50 is above 25 µM.

For the compound `COC(C)(C)CCOc1ccc(F)cc1C1CCN([C@@H]2COC3(C2)CN(c2nnco2)C3)CC1` [Example 1K, (S)-7-(4-(5-fluoro-2-(3-methoxy-3-methylbutoxy)phenyl)piperidin-1-yl)-2-(1,3,4-oxadiazol-2-yl)-5-oxa-2-azaspiro[3.4]octane], the Emax stood at 0% and the EC50 is above 25 µM.

As to `CC(C)(O)CCOc1cc(F)ccc1C1CCN([C@@H]2COC3(C2)CN(c2nnco2)C3)CC1` [Example 1T, (S)-4-(2-(1-(2-(1,3,4-oxadiazol-2-yl)-5-oxa-2-azaspiro[3.4]octan-7-yl)piperidin-4-yl)-5-fluorophenoxy)-2-methylbutan-2-ol], the Emax stood at 0% and the concentration giving a half-maximal response (EC50) is above 25 µM.

On to `Fc1ccc(OCC2CC3(COC3)C2)c(C2CCN([C@@H]3COC4(C3)CN(c3nnco3)C4)CC2)c1` [Example 2S, (S)-7-(4-(2-((2-oxaspiro[3.3]heptan-6-yl)methoxy)-5-fluorophenyl)piperidin-1-yl)-2-(1,3,4-oxadiazol-2-yl)-5-oxa-2-azaspiro[3.4]octane], for which the Emax turned out to be 0% and the 50% effective concentration (EC50) is above 25 µM.

Regarding `c1ccc(C2CCN([C@@H]3COC4(C3)CN(c3nnco3)C4)CC2)c(-c2ncco2)c1` [Example 1X, (S)-2-(1,3,4-oxadiazol-2-yl)-7-(4-(2-(oxazol-2-yl)phenyl)piperidin-1-yl)-5-oxa-2-azaspiro[3.4]octane], the Emax stood at 0% and the EC50 is above 25 µM.

For `Fc1ccc(OC2CC3(COC3)C2)c(C2CCN([C@@H]3COC4(C3)CN(c3nncs3)C4)CC2)c1` [Example 5W, (S)-7-(4-(2-((2-oxaspiro[3.3]heptan-6-yl)oxy)-5-fluorophenyl)piperidin-1-yl)-2-(1,3,4-thiadiazol-2-yl)-5-oxa-2-azaspiro[3.4]octane], the Emax amounted to 0% and the EC50 is above 25 µM.

Regarding `Cc1nnc(-c2ccccc2C2CCN([C@@H]3COC4(C3)CN(c3nnco3)C4)CC2)o1` [Example 1Y, (S)-7-(4-(2-(5-methyl-1,3,4-oxadiazol-2-yl)phenyl)piperidin-1-yl)-2-(1,3,4-oxadiazol-2-yl)-5-oxa-2-azaspiro[3.4]octane], the Emax worked out at 0% and the EC50 was above 25 µM.

Turning to `Cc1nnc(COc2ccc(F)cc2C2CCN([C@@H]3COC4(C3)CN(c3nnco3)C4)CC2)s1` [Example 2E, (S)-7-(4-(5-fluoro-2-((5-methyl-1,3,4-thiadiazol-2-yl)methoxy)phenyl)piperidin-1-yl)-2-(1,3,4-oxadiazol-2-yl)-5-oxa-2-azaspiro[3.4]octane], the Emax was 23% and the EC50 was determined as 1.67 µM.

As to `Fc1ccc(OCC2COC2)c(C2CCN([C@@H]3COC4(C3)CN(c3nncs3)C4)CC2)c1` [Example 2A, (S)-7-(4-(5-fluoro-2-(oxetan-3-ylmethoxy)phenyl)piperidin-1-yl)-2-(1,3,4-thiadiazol-2-yl)-5-oxa-2-azaspiro[3.4]octane], the Emax was 0% and the EC50 is above 25 µM.

Turning to `CCc1nnc(COc2ccc(F)cc2C2CCN([C@@H]3COC4(C3)CN(c3nnco3)C4)CC2)s1` [Example 2T, (S)-7-(4-(2-((5-ethyl-1,3,4-thiadiazol-2-yl)methoxy)-5-fluorophenyl)piperidin-1-yl)-2-(1,3,4-oxadiazol-2-yl)-5-oxa-2-azaspiro[3.4]octane], the Emax was 0% and the EC50 worked out at 0.73 µM.

As to `COc1ccccc1C1CCN([C@@H]2COC3(C2)CN(c2nnco2)C3)CC1` [Example 1Q, (S)-7-(4-(2-methoxyphenyl)piperidin-1-yl)-2-(1,3,4-oxadiazol-2-yl)-5-oxa-2-azaspiro[3.4]octane], the Emax amounted to 0% and the EC50 was above 25 µM.

`c1ccc(C2CCN([C@@H]3COC4(C3)CN(c3nnco3)C4)CC2)c(O[C@@H]2CCOC2)c1` [Example 1O, (S)-2-(1,3,4-oxadiazol-2-yl)-7-(4-(2-(((R)-tetrahydrofuran-3-yl)oxy)phenyl)piperidin-1-yl)-5-oxa-2-azaspiro[3.4]octane]: the Emax worked out at 0% and the half-maximal effective concentration (EC50) was above 25 µM.

The record behind these values is patent US11485742B2, “2-azaspiro[3.4]octane derivatives as M4 agonists” (NOVARTIS AG, priority 2019, dated 2022).
